How the values were obtained:
FFAR3 = target: T1, FFAR3 (Homo sapiens, UniProt O14843); assay: Calcium mobilization assay, FFAR3 in HEK293 stably expressing Gα16; type: cell-based; settings: in words; related receptor
T1 construct: expressed in transfected cells; host or cells: HEK293 stably expressing Gα16
T1 sequence (O14843 1-346): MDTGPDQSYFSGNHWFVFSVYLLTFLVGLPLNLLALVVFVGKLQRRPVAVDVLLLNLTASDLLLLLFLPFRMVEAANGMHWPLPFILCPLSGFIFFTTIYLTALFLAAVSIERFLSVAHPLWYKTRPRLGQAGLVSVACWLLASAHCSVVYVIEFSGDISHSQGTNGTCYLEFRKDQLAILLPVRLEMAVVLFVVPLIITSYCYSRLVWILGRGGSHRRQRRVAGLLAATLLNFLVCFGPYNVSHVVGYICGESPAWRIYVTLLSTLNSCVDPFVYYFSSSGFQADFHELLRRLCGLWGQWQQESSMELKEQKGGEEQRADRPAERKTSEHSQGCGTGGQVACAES
Method: (§7) HEK293 cells were obtained from ATCC (Manassas, VA, USA) and cultured in DMEM supplemented with 10% (v/v) FBS, 100 mg/L penicillin, and 100 mg/L streptomycin in 5% CO2 at 37 °C. For transient transfection, ~2.5 × 10^6 cells were mixed with 2 µg plasmids in 200 µL transfection buffer, and electroporation was carried out with a Scientz-2C electroporation apparatus (Scientz Biotech, Ningbo, China). The experiments were carried out 24 h after transfection. HEK293 cell lines stably expressing Gα16 were constructed by our laboratory.
(§8) For OXGR1, plasmids were transfected into HEK293 (other receptors were transfected into HEK293 stably expressing Gα16) and seeded at a density of 4 × 10^4 per well into 96-well culture plates and incubated for 24 h at 37 °C in 5% CO2. The next day, Cells were incubated with 2 μM/L Fluo-4 AM in HBSS supplemented with 5.6 mM/L D-glucose and 250 μM/L sulfinpyrazone at 37 °C for 45 min. […] Three independent measurements were repeated, i.e., three different transfections, with three technical replicates performed for each experiment. EC50 and Emax values for each curve were calculated by Prism 8.0 software (GraphPad Software).

OXGR1 [1] = target: T2, OXGR1 (Homo sapiens, UniProt Q96P68, L299P); assay: Immunofluorescence assay of OXGR1 internalization; type: cell-based; settings: 300 μM AKG, 0 or 30 min at 37°C
T2 construct: The full-length human OXGR1 and mutations were fused after the HA signal peptide and Flag tag; HA; expressed in transfected cells; host or cells: HEK293, transient
Method: (§1) Figure. R2 | Effect of L2997x50P mutant on activation and internalization of OXGR1. […]
(§2) responses. Responses were normalized to 100% for wild-type. Data are mean ± S.E.M. from three independent experiments (n = 3), with three technical replicates performed for each […]
(§3) experiment. […] HEK293 cells transiently […]
(§4) transfected with HA-tagged OXGR1 -WT or L299 7x50P mutant, were incubated with 300 μM […]
(§5) OXGR1 were stained with anti-HA (green). Cell nuclei were (1 picture or pasted object on this page, not shown here)

OXGR1 [2] = target: T3, OXGR1 (Homo sapiens, UniProt Q96P68); assay: Immunofluorescence assay of OXGR1 internalization; type: cell-based; set-up: The full-length human OXGR1 and mutations were fused after the HA signal peptide and Flag tag; HA; expressed in transfected cells; host or cells: HEK293, transient; settings: 300 μM AKG, 0 or 30 min at 37°C
Method: as §1, §2, §3, §4, §5

OXGR1 [3] = target: T3, OXGR1; assay: cAMP assay, Gs pathway (OXGR1-Gs-cAMP-Assay); type: cell-based; set-up: The full-length human OXGR1 and mutations were fused after the HA signal peptide and Flag tag; HA signal peptide (N); Flag (N); expressed in transfected cells; host or cells: HEK293 (pcDNA3.0, transient electroporation); settings: OXGR1 WT
Method: (§6) In brief, cells expressing OXGR1 were seeded in a plate at a density of 1 × 10^6 cells/well and cultured overnight. After 24 h culture, cells were harvested and re-suspended in DMEM containing 500 µM IBMX at a density of 2 × 10^5 cells/mL. Then, cells were plated onto 384-well assay plates at a density of 1000 cells/5 µL/well. Another 5 µL buffer containing compounds at various concentrations was added to the cells, and the incubation lasted for 30 min at 37 °C. Intracellular cAMP level was tested by a LANCE Ultra cAMP kit (PerkinElmer, TRF0264) and EnVision multiplate reader according to the manufacturer’s instructions.

OXGR1 [4] = target: T3, OXGR1; assay: cAMP assay, Gi pathway (OXGR1-Gi-cAMP Assay); type: cell-based; set-up: The full-length human OXGR1 and mutations were fused after the HA signal peptide and Flag tag; HA signal peptide (N); Flag (N); expressed in transfected cells; host or cells: HEK293 (pcDNA3.0, transient electroporation); settings: OXGR1 WT
Method: as §6

[5] = tested on: SUCR1 mutants (variant named in the endpoint); assay: Calcium mobilization assay, SUCR1 mutants in HEK293 stably expressing Gα16; type: cell-based, human; settings: in words
Method: (§9) The full-length human SUCR1 and mutations were fused after the HA signal peptide and Flag tag. The constructs were cloned into pcDNA6.0 vector for HEK293 system.
as §7, §8

HCAR1 = target: T4, HCAR1 (Homo sapiens, UniProt Q9BXC0); assay: Calcium mobilization assay, HCAR1 in HEK293 stably expressing Gα16; type: cell-based; settings: in words; related receptor
T4 construct: expressed in transfected cells; host or cells: HEK293 stably expressing Gα16
Method: as §7, §8

HCAR2 = target: T5, HCAR2 (Homo sapiens, UniProt Q8TDS4); assay: Calcium mobilization assay, HCAR2 in HEK293 stably expressing Gα16; type: cell-based; settings: in words; related receptor
T5 construct: expressed in transfected cells; host or cells: HEK293 stably expressing Gα16
Method: as §7, §8

[6] = target: T6, SUCR1 mutants (variant named in the endpoint) (Homo sapiens, UniProt Q9BXA5, F285A/L102F/Y248F); assay: Calcium mobilization assay, SUCR1 mutants in HEK293 stably expressing Gα16; type: cell-based; settings: SUCR1 L102F-F285A-Y248F
T6 construct: The full-length human SUCR1 and mutations were fused after the HA signal peptide and Flag tag; HA signal peptide (N); Flag (N); expressed in transfected cells; host or cells: HEK293 stably expressing Gα16 (pcDNA6.0, transient electroporation)
T6 sequence (Q9BXA5 1-334 L102F/Y248F/F285A): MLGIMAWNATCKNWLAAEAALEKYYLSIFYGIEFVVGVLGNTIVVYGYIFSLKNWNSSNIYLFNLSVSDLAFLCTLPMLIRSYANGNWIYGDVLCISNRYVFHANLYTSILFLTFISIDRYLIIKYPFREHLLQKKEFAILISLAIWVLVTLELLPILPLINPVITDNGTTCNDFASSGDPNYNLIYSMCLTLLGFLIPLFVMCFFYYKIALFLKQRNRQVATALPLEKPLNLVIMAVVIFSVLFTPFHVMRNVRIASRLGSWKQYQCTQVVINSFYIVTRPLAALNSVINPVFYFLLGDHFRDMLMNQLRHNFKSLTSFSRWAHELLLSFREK
Method: as §9, §7, §8

T5 sequence (Q8TDS4 whole entry): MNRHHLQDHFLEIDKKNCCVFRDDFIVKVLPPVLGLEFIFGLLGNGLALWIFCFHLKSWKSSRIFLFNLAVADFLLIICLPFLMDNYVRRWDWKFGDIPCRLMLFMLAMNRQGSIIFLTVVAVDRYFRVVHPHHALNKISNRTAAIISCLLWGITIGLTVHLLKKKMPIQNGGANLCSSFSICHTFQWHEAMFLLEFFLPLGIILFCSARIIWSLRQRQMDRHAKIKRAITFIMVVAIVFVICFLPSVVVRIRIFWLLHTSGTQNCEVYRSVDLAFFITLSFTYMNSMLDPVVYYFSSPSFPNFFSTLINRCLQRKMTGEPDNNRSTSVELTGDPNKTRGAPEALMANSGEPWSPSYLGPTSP
T4 sequence (Q9BXC0 whole entry, species assumed): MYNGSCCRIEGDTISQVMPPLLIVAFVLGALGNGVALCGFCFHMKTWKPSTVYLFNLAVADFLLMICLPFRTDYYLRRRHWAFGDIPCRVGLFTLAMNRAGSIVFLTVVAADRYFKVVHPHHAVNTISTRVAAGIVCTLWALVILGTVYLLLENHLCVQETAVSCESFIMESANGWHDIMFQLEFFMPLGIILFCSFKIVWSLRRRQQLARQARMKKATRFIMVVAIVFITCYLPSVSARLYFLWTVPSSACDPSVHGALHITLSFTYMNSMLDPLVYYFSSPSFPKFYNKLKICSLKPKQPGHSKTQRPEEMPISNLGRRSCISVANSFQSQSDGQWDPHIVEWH

| SMILES | activation of FFAR3 (FFAR3) | internalization of OXGR1 L299P mutant (OXGR1 [1]) | internalization of WT-OXGR1 (OXGR1 [2]) | activation of Gs signaling (OXGR1 [3]) | activation of Gi signaling (OXGR1 [4]) | ITA activation of SUCR1-L102F, SUCR1-L102F-F285A, SUCR1-L102F-F175L [5] | activation of HCAR1 (HCAR1) | activation of HCAR2 (HCAR2) | EC50 [6] |
| --- | --- | --- | --- | --- | --- | --- | --- | --- | --- |
| O=C(O)CCC(=O)C(=O)O [AKG, α-ketoglutarate] | no cross-reactivity | remains at the plasma membrane | internalizes | no detectable activation | no detectable activation | – | – | – | – |
| C=C(CC(=O)O)C(=O)O [ITA, itaconate] | no detectable activation | – | – | no detectable activation | no detectable activation | further enhanced ITA activation in both potency and efficiency | no detectable activation | no detectable activation | – |
| O=C(O)CCC(=O)O [SUC, succinate] | – | – | – | – | – | – | – | – | 2200 ± 220 µM |

Reference: PMC13372822 (The EMBO Journal, 2026)
